Measured values published in article PMC10548512 (Chemical Science, 2023).

Test system: H1N1pdm09 virus (A/Netherlands/602/2009) I375F mutant
Conditions: 1 h

CC[C@H](C)[C@@H]1NC(=O)[C@H](CS)NC(=O)[C@H](CO)NC(=O)[C@H](CCCNC(=N)N)NC(=O)[C@H](CCCNC(=N)N)NC(=O)[C@H](Cc2ccc(O)cc2)NC(=O)[C@H](CCC(N)=O)NC(=O)[C@H](Cc2ccccc2)NC(=O)[C@H](CC(N)=O)NC(=O)[C@H](CC(C)C)NC(=O)[C@@H]2CSC(=N2)c2cc(ccn2)C[C@@H](C(=O)NCC(N)=O)NC(=O)[C@H](CC(N)=O)NC(=O)[C@H](CC(C)C)NC(=O)[C@H]([C@@H](C)CC)NC(=O)[C@H](CC(N)=O)NC(=O)[C@H](CC(C)C)NC1=O [M3]
IC50: 364 nM
